Experimental data reported in patent publication US20170143712A1, “Methods of Treating Cancers, Immune and Autoimmune Diseases, and Inflammatory Diseases Based on BTK Occupancy and BTK Resynthesis Rate” (Acerta Pharma B.V., priority 2014, published 2017).
Entries after “also recorded” stand apart in the source; their conditions may differ. Read-outs that look alike come from different tables or passages of the source.

Tests used:
[1] = Plasma pharmacokinetics in CLL patients; assay type: in vivo; conditions: human, oral administration
Excerpt: In this indication, the rapid resynthesis of BTK in the tumor cells in the CLL cell compartment is observed as a steeper rate of decline in the percentage of BTK sites occupied by Formula (II), compared with what has been observed in normal peripheral blood cells of healthy volunteers (compare linear slope estimates of FIG. 25 with FIG. 34).

[2] = target: T1, BTK (Homo sapiens, UniProt Q06187); experiment: Intracellular total BTK protein in peripheral blood B lymphocytes of healthy volunteers (flow cytometry); assay type: in vivo
Protocol: The percentage of pre-study BTK protein level was determined in cryopreserved B cells by flow cytometry analysis of Mean Fluorescence Intensity.

[3] = target: T1, BTK; experiment: BTK occupancy in PBMCs / peripheral blood B lymphocytes of healthy volunteers (active-site probe ELISA); assay type: in vivo; conditions: for receptor occupancy at 15 mg: human
Protocol: The presence of inactivated BTK in peripheral blood B lymphocytes was measured using a BTK active-site specific probe in an ELISA assay and expressed as a percentage of pre-study levels.
A Phase 1, single-center, open-label, single-treatment study in healthy volunteers was conducted to assess the BTK occupancy of Formula (II) after multiple-dose administration in healthy adult subjects under fasting conditions. The study primarily focused on characterizing the pharmacodynamics (PD) of Formula (II) by assessing the BTK occupancy profile of Formula (II) in peripheral blood mononuclear cells (PBMCs) and by measuring the expression of lymphocyte B activation markers, CD69 and CD86, during and after multiple oral dose administration of 15 mg daily in healthy subjects. As a secondary objective, the study evaluated the pharmacokinetic (PK) profile, safety, and tolerability after multiple-dose administrations of Formula (II) in the healthy subjects. Moreover, the study determined the effects of Formula (II) on peripheral blood T cells and myeloid-derived suppressor cells (MDSCs).
(§1) Forty, healthy adult, non-tobacco using men and women were enrolled in the study. A 15 mg Formula (II) dose (1×15 mg capsule) was administered once daily (QD) to each subject for 7 consecutive days (Days 1 to 7) with a washout period (6 days). PD blood samples were collected from each subject before dosing on Day 1, throughout the study, and up to 144 hours after dosing on Day 7 to characterize Formula (II) PD effects. PK sampling for Formula (II) was also collected before dosing on Day 1, throughout the study, and for 24 hours after dosing on Day 7. Additionally, potential Formula (II) safety issues were monitored through physical examination, vital sign measurements, 12 lead electrocardiograms (ECGs), AEs and clinical laboratory tests.
The occupancy of BTK by Formula (II) was measured in PBMCs with the aid of a biotin tagged Formula (II) analogue probe. The effect of Formula (II) on functional activation of B cells following BCR stimulation (measured via the phorphorylation of BTK and upregulation of CD69 and CD86 activation markers) was also evaluated.

[4] = target: T1, BTK; experiment: Per cell BTK protein level in CD19+/CD5+ CLL tumor cells (flow cytometry); assay type: in vivo; conditions: 100 mg BID, after 4 weeks of treatment
Protocol: Peripheral blood samples were obtained and BTK protein levels were evaluated in CD19+/CD5+ tumor cells by flow cytometry.

[5] = target: T2, BTK (Canis lupus familiaris, UniProt A0A8I3P3Z9); experiment: BTK target occupancy in peripheral B-cells and lymph node fine needle aspirates of dogs with spontaneous lymphoma; assay type: in vivo, dog
T2 construct: Purified peripheral B-cells and FNA samples were snap-frozen for measurement of BTK target occupancy; from tissue; host or cells: peripheral blood CD21+ B cells and lymph node fine needle aspirates of companion dogs with spontaneous lymphoma, dosed in vivo
Protocol: Dogs were administered Formula (II) orally once daily and evaluations occurred every 7 days for the first 4 weeks of the study, then every 14 days thereafter. PBMCs and lymph node fine needle aspirates (lymphoma patients only) were obtained for PD analysis on day 0 at time 0 hr and 3 hr, and again at pre-dose (Cmin) on day 7 of drug administration. In each cohort, PK analysis was performed in 2 dogs on day 14 of the study consisting of blood sampling at 0, 0.5, 1, 2, 3, 4, 6, 8, 12, and 24 hr following drug administration.
Peripheral blood mononuclear cells (PBMCs) were isolated from blood and the CD21+ B-cells were enriched by positive magnetic selection. For fine needle aspiration (FNA) samples, erythrocytes were lysed with ammonium chloride lysis buffer. Purified peripheral B-cells and FNA samples were snap-frozen for measurement of BTK target occupancy. BTK target occupancy was measured using an ELISA with anti-BTK as a capture antibody and a biotinylated active site probe for BTK, followed by streptavidin-HRP as a detection reagent. The ex vivo incubation with Formula (II) provided a baseline signal for each sample. BTK occupancy in the B cell lysates from peripheral B-cells and lymph node FNA preparations was calculated as a percentage of the control after correction for baseline chemoluminescence. All samples were run in quadruplicate.

[6] = Plasma pharmacokinetics in healthy volunteers; assay type: in vivo, human; conditions: 15 mg QD Day 1 vs Day 7; 15 mg and 25 mg studies
Protocol: as §1
The mean measured plasma concentration of Formula (II) versus time data (PK data) and mean occupancy of BTK by Formula (II) (PD data) were fitted with biophase compartment PK and PD models, respectively to enable prediction of PK and PD for different doses, dose regimens and dose durations. The biophase compartment PK model used to fit Formula (II) concentration versus time data is depicted in FIG. 1(A). The model is a naïve, mean data, two-compartment PK model with a delay d(1,3) for oral absorption. Fitting (optimization) was accomplished via weighed least squares. […]

[7] = target: T1, BTK; experiment: p-BTK after ex vivo BCR stimulation in CD19+/CD5+ CLL tumor cells (phospho-flow cytometry); conditions: CLL patients on oral treatment
[8] = 3 hr after administration, all cohorts

T1 sequence (Q06187 whole entry): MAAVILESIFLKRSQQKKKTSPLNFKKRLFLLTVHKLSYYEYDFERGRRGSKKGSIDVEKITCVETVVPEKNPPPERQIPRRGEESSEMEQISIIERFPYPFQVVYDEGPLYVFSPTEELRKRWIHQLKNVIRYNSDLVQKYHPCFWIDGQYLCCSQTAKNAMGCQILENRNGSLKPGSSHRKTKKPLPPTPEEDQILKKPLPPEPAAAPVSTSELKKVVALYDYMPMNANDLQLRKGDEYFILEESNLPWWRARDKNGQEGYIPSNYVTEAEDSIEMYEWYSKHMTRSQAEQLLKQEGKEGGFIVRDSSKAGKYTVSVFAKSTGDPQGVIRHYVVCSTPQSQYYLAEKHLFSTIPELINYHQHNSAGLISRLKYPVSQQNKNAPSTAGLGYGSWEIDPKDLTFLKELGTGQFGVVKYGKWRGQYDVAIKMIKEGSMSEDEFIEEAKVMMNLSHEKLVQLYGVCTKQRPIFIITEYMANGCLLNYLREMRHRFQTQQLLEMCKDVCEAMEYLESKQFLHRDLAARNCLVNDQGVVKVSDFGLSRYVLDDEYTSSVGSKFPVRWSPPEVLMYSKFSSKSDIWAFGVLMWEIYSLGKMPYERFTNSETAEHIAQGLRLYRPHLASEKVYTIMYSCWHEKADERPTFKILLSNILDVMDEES
T2 sequence (A0A8I3P3Z9 1-664): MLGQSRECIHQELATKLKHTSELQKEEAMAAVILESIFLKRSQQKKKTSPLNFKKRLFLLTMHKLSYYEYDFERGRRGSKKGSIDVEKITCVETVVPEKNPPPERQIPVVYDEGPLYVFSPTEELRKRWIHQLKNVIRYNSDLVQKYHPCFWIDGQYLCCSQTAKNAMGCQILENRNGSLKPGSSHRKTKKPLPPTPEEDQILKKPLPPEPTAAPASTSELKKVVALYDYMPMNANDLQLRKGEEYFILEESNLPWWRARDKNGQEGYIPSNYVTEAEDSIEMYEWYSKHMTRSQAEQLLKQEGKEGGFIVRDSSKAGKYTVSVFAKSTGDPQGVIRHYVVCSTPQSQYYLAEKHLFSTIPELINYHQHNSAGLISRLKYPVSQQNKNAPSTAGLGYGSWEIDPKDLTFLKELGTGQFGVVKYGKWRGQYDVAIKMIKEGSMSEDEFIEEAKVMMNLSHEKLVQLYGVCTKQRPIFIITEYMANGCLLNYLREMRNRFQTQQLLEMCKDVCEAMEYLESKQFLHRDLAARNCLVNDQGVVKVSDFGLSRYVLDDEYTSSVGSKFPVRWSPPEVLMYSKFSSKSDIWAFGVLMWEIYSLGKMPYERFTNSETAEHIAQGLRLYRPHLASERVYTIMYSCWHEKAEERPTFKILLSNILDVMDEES

## CC#CC(=O)N1CCC[C@H]1c1nc(-c2ccc(C(=O)Nc3ccccn3)cc2)c2c(N)nccn12 [Formula (II), (S)-4-(8-amino-3-(1-(but-2-ynoyl)pyrrolidin-2-yl)imidazo[1,5-a]pyrazin-1-yl)-N-(pyridin-2-yl)benzamide]
[1]
  Tmax: ~1 h
[2]; 15 mg QD x 7 days, after 48 hours (between Day 2 and Day 3)
  intracellular total BTK protein level in B lymphocytes: Decreased BTK levels; also recorded: decrease
[2]; 15 mg QD, after the initial dose
  intracellular total BTK protein level in B lymphocytes: increased
[3]; 15 mg QD, Days 1 and 2, initial post-dose rate
  estimated half-life of occupied BTK (BTK resynthesis t1/2): 20 h
[3]; after 7 days dosing with 15 mg, and after a 25 mg BID dose
  modeled rate of BTK resynthesis (t1/2): 119 h
[3]; after discontinuation of 15 mg QD x 7 days at steady state, later rate
  estimated half-life of occupied BTK (BTK resynthesis t1/2): 119 h
[3]; early doses of 15 mg QD, or a single 25 mg QD dose
  modeled rate of BTK resynthesis (t1/2): 20 h
[3]; 15 mg QD for 7 days, read-out: peak BTK occupancy at steady state
  receptor occupancy at 15 mg: > 90%
[3]; 15 mg QD, Days 1 and 2, read-out: BTK target occupancy at the end of the dosing interval
  receptor occupancy at 15 mg: ~60%
[4]
  decrease in BTK protein expression per cell (median, of pre-dose values): 26%
[5]; [8]
  BTK occupancy in lymph node FNAs: > 90%
  BTK occupancy in peripheral B-cells: ≥ 90%
[5]; day 7 pre-dose, steady state (24 hr QD or 12 hr BID after dose)
  BTK occupancy in peripheral blood sample: Full BTK occupancy
[5]; pre-dose Day 7
  BTK occupancy in tumor bearing lymph nodes: 82-88%
[6]
  accumulation or change in PK after repeat dosing: no apparent accumulation; also recorded: little to no accumulation or change in PK after repeat dosing
[7]
  BCR-mediated signaling through BTK (p-BTK after ex vivo BCR stimulation): significantly inhibited; also recorded: decreased BTK activation
